Results taken from patent US11084829B2, “Ubiquitin-specific-processing protease 7 (USP7) modulators and uses thereof” (RAPT THERAPEUTICS, INC., priority 2018, dated 2021).

Each compound was assayed against USP7 (Homo sapiens, UniProt Q93009) (assay: USP7 inhibitory potency (IC50)).
Assay type: biochemical
Procedure: Activity for compounds described herein is provided in Table 2, wherein potency levels are provided as follows: (Potency: USP7 IC50: A<0.01 μM; B=0.01-0.1 μM; C=>0.1 μM.

Sequence of USP7 (Q93009 whole entry): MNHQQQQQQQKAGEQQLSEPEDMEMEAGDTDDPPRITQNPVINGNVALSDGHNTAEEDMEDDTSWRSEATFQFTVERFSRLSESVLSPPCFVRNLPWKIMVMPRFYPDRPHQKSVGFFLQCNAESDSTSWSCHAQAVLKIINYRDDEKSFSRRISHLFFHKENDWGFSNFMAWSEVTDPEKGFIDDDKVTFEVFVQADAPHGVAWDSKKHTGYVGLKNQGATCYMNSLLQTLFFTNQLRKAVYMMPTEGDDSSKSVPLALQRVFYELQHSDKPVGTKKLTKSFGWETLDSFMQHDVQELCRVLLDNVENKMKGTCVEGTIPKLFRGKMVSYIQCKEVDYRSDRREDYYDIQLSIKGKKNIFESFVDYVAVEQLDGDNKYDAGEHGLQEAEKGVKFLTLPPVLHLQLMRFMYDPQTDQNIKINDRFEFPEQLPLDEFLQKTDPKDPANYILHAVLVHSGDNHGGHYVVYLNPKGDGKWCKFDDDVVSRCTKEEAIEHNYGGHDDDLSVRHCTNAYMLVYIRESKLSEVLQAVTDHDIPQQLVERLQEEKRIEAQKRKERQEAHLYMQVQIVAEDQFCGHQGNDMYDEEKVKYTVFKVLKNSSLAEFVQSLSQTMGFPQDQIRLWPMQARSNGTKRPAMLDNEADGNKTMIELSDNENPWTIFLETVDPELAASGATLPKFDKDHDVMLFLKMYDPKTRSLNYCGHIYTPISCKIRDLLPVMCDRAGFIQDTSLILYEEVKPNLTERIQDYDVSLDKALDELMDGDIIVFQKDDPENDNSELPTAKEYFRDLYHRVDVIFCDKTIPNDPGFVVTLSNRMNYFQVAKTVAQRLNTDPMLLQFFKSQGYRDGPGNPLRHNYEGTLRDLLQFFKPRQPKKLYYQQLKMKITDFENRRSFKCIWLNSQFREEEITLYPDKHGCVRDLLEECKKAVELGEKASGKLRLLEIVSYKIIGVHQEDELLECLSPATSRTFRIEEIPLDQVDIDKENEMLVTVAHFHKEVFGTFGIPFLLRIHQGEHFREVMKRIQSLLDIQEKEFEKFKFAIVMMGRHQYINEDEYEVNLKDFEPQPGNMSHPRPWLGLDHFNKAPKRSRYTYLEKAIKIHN

IC50, 10 to 100 nM:
Cc1cc(Cl)cc(-c2ccnc3cc(CN4C(=O)CCC4C(F)(F)F)sc23)c1CC1CNCCO1 (stereo not drawn) [Example 114, 1-((7-(5-chloro-3-methyl-2-(morpholin-2-ylmethyl)phenyl)thieno[3,2-b]pyridin-2-yl)methyl)-5-(trifluoromethyl)pyrrolidin-2-one]

IC50, < 10 nM:
Cc1cc(Cl)cc(-c2ccnc3cc(CN4C(=O)C5CC5C4=O)sc23)c1C[C@H]1OCCN[C@H]1C (stereo partly drawn) [Example 106, 3-((7-(5-chloro-3-methyl-2-(((2R,3 S)-3-methylmorpholin-2-yl)methyl)phenyl)thieno[3,2-b]pyridin-2-yl)methyl)-3-azabicyclo[3.1.0]hexane-2,4-dione]
Cc1cc(Cl)cc(-c2ccnc3cc(CN4C(=O)CCCC4=O)sc23)c1CC1CNCCO1 (stereo not drawn) [Example 107, 1-((7-(5-chloro-3-methyl-2-(morpholin-2-ylmethyl)phenyl)thieno[3,2-b]pyridin-2-yl)methyl)piperidine-2,6-dione]
Cc1cc(Cl)cc(-c2ccnc3cc(Cn4c(=O)ccn(C)c4=O)sc23)c1CC1CNCCO1 (stereo not drawn) [Example 108, 3-((7-(5-chloro-3-methyl-2-(morpholin-2-ylmethyl)phenyl)thieno[3,2-b]pyridin-2-yl)methyl)-1-methylpyrimidine-2,4(1H,3H)-dione]
Cc1cc(Cl)cc(-c2ccnc3cc(Cn4c(=O)ccn(CC(F)(F)F)c4=O)sc23)c1CC1CNCCO1 (stereo not drawn) [Example 109, 3-((7-(5-chloro-3-methyl-2-(morpholin-2-ylmethyl)phenyl)thieno[3,2-b]pyridin-2-yl)methyl)-1-(2,2,2-trifluoroethyl)pyrimidine-2,4(1H,3H)-dione]
Cc1cc(Cl)cc(-c2ccnc3cc(CN4C(=O)C5CCC5C4=O)sc23)c1CC1CNCCO1 (stereo not drawn) [Example 110, 3-((7-(5-chloro-3-methyl-2-(morpholin-2-ylmethyl)phenyl)thieno[3,2-b]pyridin-2-yl)methyl)-3-azabicyclo[3.2.0]heptane-2,4-dione]
Cc1cc(Cl)cc(-c2ccnc3cc(Cn4c(=O)ccn(C5CCC5)c4=O)sc23)c1CC1CNCCO1 (stereo not drawn) [Example 111, 3-((7-(5-chloro-3-methyl-2-(morpholin-2-ylmethyl)phenyl)thieno[3,2-b]pyridin-2-yl)methyl)-1-cyclobutylpyrimidine-2,4(1H,3H)-dione]
Cc1cc(Cl)cc(-c2ccnc3cc(CN4C(=O)C5CC5C4=O)sc23)c1CC1CNCCOC1 (stereo not drawn) [Example 112, 3-((7-(2-((1,4-oxazepan-6-yl)methyl)-5-chloro-3-methylphenyl)thieno[3,2-b]pyridin-2-yl)methyl)-3-azabicyclo[3.1.0]hexane-2,4-dione]
Cc1cc(Cl)cc(-c2ccnc3cc(CN4C(=O)C5CC5C4=O)sc23)c1CC1CNCCS1 (stereo not drawn) [Example 113, 3-((7-(5-chloro-3-methyl-2-(thiomorpholin-2-ylmethyl)phenyl)thieno[3,2-b]pyridin-2-yl)methyl)-3-azabicyclo[3.1.0]hexane-2,4-dione]
Cc1cc(Cl)cc(-c2ccnc3cc(CN4C(=O)C5CCCN5C4=O)sc23)c1CC1CNCCO1 (stereo not drawn) [Example 116, 2-((7-(5-chloro-3-methyl-2-(morpholin-2-ylmethyl)phenyl)thieno[3,2-b]pyridin-2-yl)methyl)tetrahydro-1H-pyrrolo[1,2-c]imidazole-1,3(2H)-dione]
Cc1cc(Cl)cc(-c2ccnc3cc(CN4C(=O)CN(C)C4=O)sc23)c1CC1CNCCO1 (stereo not drawn) [Example 117, 3-((7-(5-chloro-3-methyl-2-(morpholin-2-ylmethyl)phenyl)thieno[3,2-b]pyridin-2-yl)methyl)-1-methylimidazolidine-2,4-dione]

IC50, > 100 nM:
Cc1cc(Cl)cc(-c2ccnc3cc(CN4C(=O)C5CC5C4=O)sc23)c1CC1COCCN1 (stereo not drawn) [Example 115, 3-((7-(5-chloro-3-methyl-2-(morpholin-3-ylmethyl)phenyl)thieno[3,2-b]pyridin-2-yl)methyl)-3-azabicyclo[3.1.0]hexane-2,4-dione]
